The record followed here is patent US8324235B2, “Heterocyclic spiro-compounds” (Novartis AG, priority 2007, dated 2012).

Like-named read-outs stand apart in the source and are kept apart here.

Test [1] addresses T1, recombinant human Cyp19 enzyme (aromatase) (Homo sapiens, UniProt P11511).
T1 construct: purchased Becton Dickinson Biosciences, San Jose, Calif., USA
T1 sequence (P11511 1-503): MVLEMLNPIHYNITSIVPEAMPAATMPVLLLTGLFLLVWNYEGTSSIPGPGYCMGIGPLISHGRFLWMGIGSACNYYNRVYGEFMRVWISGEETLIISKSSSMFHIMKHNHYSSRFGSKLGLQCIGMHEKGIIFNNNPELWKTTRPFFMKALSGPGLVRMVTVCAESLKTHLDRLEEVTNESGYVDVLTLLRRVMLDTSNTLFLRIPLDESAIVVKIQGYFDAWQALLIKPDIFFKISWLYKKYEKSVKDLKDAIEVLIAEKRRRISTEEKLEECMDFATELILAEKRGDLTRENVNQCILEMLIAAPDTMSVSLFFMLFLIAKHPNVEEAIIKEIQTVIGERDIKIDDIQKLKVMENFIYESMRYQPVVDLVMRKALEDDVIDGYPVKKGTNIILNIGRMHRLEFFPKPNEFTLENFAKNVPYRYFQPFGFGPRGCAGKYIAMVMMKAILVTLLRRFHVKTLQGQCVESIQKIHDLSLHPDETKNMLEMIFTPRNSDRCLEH
The experiment in a line: Cyp19/MFC high throughput aromatase inhibition kit. Format: biochemical. The method, then:
The compounds of the formula (I′) have at least one asymmetric carbon atom, which is labelled “*”. A compound of the formula (I′) is to be understood as a compound having a specific configuration around the designated asymmetric carbon atom. If a synthesis method is used which leads to racemic compounds, the racemate resolution is carried out in accordance with conventional methods, such as via a chiral HPLC column. […] The aforementioned aromatase inhibitory activity can, as the skilled worker is well aware and as described below, be comfortably determined via the commercial Cyp19 enzyme inhibition kit (vide infra). In the abovementioned inhibition kit, compounds of the formula (I′) have an activity which is at least 10 times lower, preferably 20 times lower than the compounds of the formula (I′) with the opposite configuration around the asymmetric carbon atom labelled “*”.
The enzyme aromatese (CYP19) mediates the rate-limiting step of estrogen biosynthesis in human and rodent species. As estrogens control the sexual characteristics and reproduction as well as various structural and functional tissue features, compounds intended for the herein disclosed therapeutic use should at therapeutic dose levels show no or only minor interference with aromatase.
The concentration-dependent interference of the compounds with aromatase can be measured in vitro using a commercial Cyp19 enzyme inhibition kit and the manufacturer's instructions.
The Cyp19/methoxy-4-trifluoromethyl-coumarin (MFC) high throughput inhibition kit (Becton Dickinson Biosciences, San Jose, Calif., USA), for example, is designed to screen for potential inhibitors of Cyp19 catalytic activity in a 96-well format. The kit includes recombinant human Cyp19 enzyme in the form of supersomes, a fluorescent P450 substrate, an NADPH regenerating system, a reaction buffer and a stop reagent. MFC, the fluorogenic substrate is rapidly converted by Cyp19 supersomes to the highly fluorescent product 7-hydroxy-4-trifluoromethyl coumarin (7-HFC). The execution of the assay in the presence of various concentrations of inhibitor compounds ranging from 0.2 nanomolar to […] occurs according to the manufacturer's instructions. The concentration-dependent inhibition of aromatase activity can be quantified using the equation described above for the in vitro testing of aldosterone synthase inhibition in NCI-H295R cells to generate IC50 values (inhibitory concentration in mol/l yielding 50% of the maximal inhibition).

The target of test [2] is T2, aldosterone synthase (CYP11B2) (Rattus norvegicus, UniProt P30099).
T2 construct: from tissue; host or cells: live Wistar rat (adrenal gland, zona glomerulosa)
T2 sequence (P30099 35-510): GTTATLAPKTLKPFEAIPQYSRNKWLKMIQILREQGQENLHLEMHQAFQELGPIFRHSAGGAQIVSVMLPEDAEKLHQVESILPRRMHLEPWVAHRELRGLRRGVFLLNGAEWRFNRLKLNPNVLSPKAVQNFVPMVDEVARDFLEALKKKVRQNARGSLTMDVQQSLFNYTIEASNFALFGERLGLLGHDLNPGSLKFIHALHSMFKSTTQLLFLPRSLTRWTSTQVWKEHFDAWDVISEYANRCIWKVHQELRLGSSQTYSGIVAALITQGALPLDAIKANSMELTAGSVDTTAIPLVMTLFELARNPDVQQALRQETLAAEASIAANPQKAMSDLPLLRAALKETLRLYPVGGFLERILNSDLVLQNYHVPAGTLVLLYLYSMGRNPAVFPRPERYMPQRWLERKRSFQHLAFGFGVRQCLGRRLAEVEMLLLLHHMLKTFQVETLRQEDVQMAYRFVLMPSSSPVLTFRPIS
The experiment in a line: Suppression of plasma aldosterone levels in ACTH-stimulated rats. Format: in vivo, Wistar rats. The following applies: 4 mg/kg p.o., 2 h after dosing vs 1 h before dosing. The method, then: The target efficacy of the compounds disclosed in the present invention to dose-dependently suppress aldosterone levels in vivo may be assessed with the following protocol:
(§1) Adult male Wistar rats weighing between 250 and 350 grams are kept under the usual 12-hour light and 12-hour dark conditions at a temperature of 23° C.±2° C. On the first day of the experiment, the animals receive a subcutaneous injection of a depot ACTH product in a dose of 1.0 mg/kg weight (SYNACTHEN-Depot, Novartis, Basel, CH) 16 hours prior to the administration of a test compound. […] An alternative method to stimulate aldosterone secretion consists in subjecting rats to a low salt diet for 48 hours and applying the diuretic furosemide at 10 mg/kg by subcutaneous or intraperitoneal administration 16 hours, respectively 2 hours prior to the start of the experiment. […] The aldosterone concentrations of the plasma samples can be determined with a radioimmunoassay as described above for the in vitro test systems. […]
The selective suppression of plasma steroid levels as for instance aldosterone in comparison to corticosterone may serve as a measure for in vivo bioavailability and pharmacodynamic enzyme inhibitory activity of the herein described compounds. The evaluation of the data may occur relative to the application of vehicle or quantitatively by determination of the area under the curve (AUC).

Test [3] deals with T3, 11beta hydroxylase (CYP11B1) (Rattus norvegicus, UniProt P15393).
T3 construct: from tissue; host or cells: live Wistar rat (adrenal gland)
T3 sequence (P15393 25-499): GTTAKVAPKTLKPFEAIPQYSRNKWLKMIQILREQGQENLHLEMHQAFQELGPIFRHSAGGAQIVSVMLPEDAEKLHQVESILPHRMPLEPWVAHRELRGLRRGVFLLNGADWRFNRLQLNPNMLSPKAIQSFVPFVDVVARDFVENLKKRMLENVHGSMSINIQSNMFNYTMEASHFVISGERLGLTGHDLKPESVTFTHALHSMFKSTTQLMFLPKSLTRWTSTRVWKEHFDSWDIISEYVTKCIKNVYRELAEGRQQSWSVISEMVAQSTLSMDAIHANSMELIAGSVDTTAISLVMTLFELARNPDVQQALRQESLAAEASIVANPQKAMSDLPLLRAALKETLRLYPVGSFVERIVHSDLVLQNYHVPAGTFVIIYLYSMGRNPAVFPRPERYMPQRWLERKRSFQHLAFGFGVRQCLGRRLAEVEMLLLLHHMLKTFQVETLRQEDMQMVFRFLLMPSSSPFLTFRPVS
The experiment in a line: Suppression of plasma corticosterone levels in ACTH-stimulated rats. Format: in vivo, Wistar rats. The settings on record: 4 mg/kg p.o., 2 h after dosing vs 1 h before dosing. On the procedure:
as §1, with “experiment. On the second day of the experiment, the animals are divided into test groups of 5 animals and subjected to a first bleed 1 hour prior to the administration of test compound.” for “experiment.”
The selective suppression of plasma steroid levels as for instance aldosterone in comparison to corticosterone may serve as a measure for in vivo bioavailability and pharmacodynamic enzyme inhibitory activity of the herein described compounds. The evaluation of the data may occur relative to the application of vehicle or quantitatively by determination of the area under the curve (AUC). […]

The mark [4] stands for this setting: enantiomers with differing aromatase inhibition, read-out: IC50 value (aromatase inhibition, enantiomers).
Setting [5] is: average of several measurements, read-out: IC50 value (aromatase inhibition).

For the molecule `N#Cc1ccc2c(c1)COC21CCn2cncc21` (single isomer, unassigned) [Example 23, (1S) or (1R)-5′,6′-Dihydro-3H-spiro[2-benzofuran-1,7′-pyrrolo[1,2-c]imidazole]-5-carbonitrile], in test [1] (setting [4]), the IC50 was found to be 922 nM.

Consider `N#Cc1ccc2c(c1)COC21CCn2cncc21` (single isomer, unassigned) [antipode of 23], for which the half-inhibitory concentration (IC50) in test [1] (setting [4]) is 31.8 nM.

Take `N#Cc1ccc2c(c1)COC21CCCn2cncc21` (centres unmarked) [Example 1, 6′,7′-Dihydro-3H,5′H-spiro[2-benzofuran-1,8′-imidazo[1,5-a]pyridine]-5-carbonitrile]: in test [2], the “Aldosterone levels (% change at 2 h)” value is recorded as −67.6%. The IC50 in test [1] (setting [5]) is 64.6 nM. Moreover, the “Corticosterone levels (% change at 2 h)” value in test [3] is −7.7%.

On to `N#Cc1ccc2c(c1)C1(CCCn3cncc31)OC2` (centres unmarked) [Example 4, 6′,7′-Dihydro-3H,5′H-spiro[2-benzofuran-1,8′-imidazo[1,5-a]pyridine]-6-carbonitrile], for which, in test [2], the “Aldosterone levels (% change at 2 h)” value is given as −50.2%. Moreover, the IC50 in test [1] (setting [5]) is 406 nM. In test [3], the “Corticosterone levels (% change at 2 h)” value was found to be 0.9%.
